For experiment [1], the target named is T1, Recombinant ROCK1 (amino acids 1-477) (Homo sapiens, UniProt Q13464).
T1 construct: Recombinant ROCK1 (amino acids 1-477); by word order, ROCK1 from Carna Biosciences
The experiment can be described thus: ROCK inhibition assay, LANCE Ultra TR-FRET kinase assay (ROCK1). Particulars: 1 μM ATP, 50 nM ULight-CREBtide substrate. The class given is biochemical. The procedure:
(§1) Kinase IC50 was determined through an in vitro assay based on LANCE Ultra TR-FRET (Time-Resolved Fluorescence Resonance Energy Transfer) homogeneous technologies method (Perkin Elmer). Recombinant ROCK1 (amino acids 1-477) and ROCK2 (amino acids 5-554) proteins were purchased from Carna Biosciences and SignalChem. Compound activities were measured by Envision and IC50s were calculated. The assays were performed in white LUMITRAC™ 200 96 well half-area microplates from Greiner Bio-One. The kinase reaction buffer consisted of 50 mM HEPES pH 7.5, 1 mM EGTA, 10 mM MgCl2, 2 mM DTT and 0.01% Tween-20. Kinases were incubated with 50 nM (ULight-CREBtide) substrate in the presence of 1 (ROCK1) or 4 (ROCK2) μM ATP. The kinase reaction was carried out for 1 hour before addition of a stopping buffer to a final of 10 mM EDTA and 0.6 nM of LANCE Ultra Europium anti-phospho-CREB (Ser133) antibody (PerkinElmer TRF0200) in LANCE detection buffer. All assay incubations were performed at room temperature, and the microplates were sealed with polyester film during that time. The reaction was incubated for 1 hour, and the signal was read in Envision in TR-FRET mode (excitation at 320 nm and emission at 615/665 nm).
(§2) As used herein, a way to describe potency of inhibitory activity (nM) is a value of inhibitory activity at 50% (IC50).
(In general: In TR-FRET formats the signal depends on donor and acceptor labels being close together.)

Experiment [2] deals with T2, Recombinant ROCK2 (amino acids 5-554) (Homo sapiens, UniProt O75116).
T2 construct: ROCK2 (amino acids 5-554); by word order, ROCK2 from SignalChem
The experiment can be described thus: ROCK inhibition assay, LANCE Ultra TR-FRET kinase assay (ROCK2). Type of experiment: biochemical. The settings on record: 4 μM ATP, 50 nM ULight-CREBtide substrate. The procedure:
as §1, §2

T1 sequence (Q13464 1-477): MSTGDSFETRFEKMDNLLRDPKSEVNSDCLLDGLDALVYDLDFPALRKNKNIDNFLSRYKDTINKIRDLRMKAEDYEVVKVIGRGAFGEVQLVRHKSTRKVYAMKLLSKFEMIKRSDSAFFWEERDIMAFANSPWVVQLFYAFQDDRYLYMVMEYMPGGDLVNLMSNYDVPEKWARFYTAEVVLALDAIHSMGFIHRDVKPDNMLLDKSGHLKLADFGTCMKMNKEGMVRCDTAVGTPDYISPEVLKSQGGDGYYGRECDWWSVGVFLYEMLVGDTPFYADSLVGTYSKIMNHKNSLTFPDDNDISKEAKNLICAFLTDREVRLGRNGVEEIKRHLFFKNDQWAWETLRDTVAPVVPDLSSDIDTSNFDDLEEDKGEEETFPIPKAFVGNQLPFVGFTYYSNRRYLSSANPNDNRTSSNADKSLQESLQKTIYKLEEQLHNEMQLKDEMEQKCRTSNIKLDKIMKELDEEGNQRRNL
T2 sequence (O75116 5-554): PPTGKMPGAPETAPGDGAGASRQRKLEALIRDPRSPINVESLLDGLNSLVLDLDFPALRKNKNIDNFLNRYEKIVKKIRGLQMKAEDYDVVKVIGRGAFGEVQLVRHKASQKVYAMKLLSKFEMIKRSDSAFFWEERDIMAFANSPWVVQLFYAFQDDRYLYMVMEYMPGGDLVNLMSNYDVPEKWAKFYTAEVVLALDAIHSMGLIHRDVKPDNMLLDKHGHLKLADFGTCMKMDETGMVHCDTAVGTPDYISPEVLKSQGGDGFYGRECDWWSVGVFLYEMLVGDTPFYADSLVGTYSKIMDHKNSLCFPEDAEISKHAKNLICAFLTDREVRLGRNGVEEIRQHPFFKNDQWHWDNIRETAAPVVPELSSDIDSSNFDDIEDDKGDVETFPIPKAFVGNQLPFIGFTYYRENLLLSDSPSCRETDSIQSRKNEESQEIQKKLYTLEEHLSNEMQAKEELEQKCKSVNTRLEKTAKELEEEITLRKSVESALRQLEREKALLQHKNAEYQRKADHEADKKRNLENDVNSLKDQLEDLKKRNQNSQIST

Take `O=C(NCc1ccc(F)nc1)c1cc(F)cc(Cn2ccc3cc(-c4c[nH]nc4C(F)(F)F)ccc3c2=O)c1` [Compound 129]: the IC50 (commonly the midpoint of a concentration-inhibition curve) in experiment [1] is 101 to 500 nM; in experiment [2], less than 10 nM.

With `CNC(=O)c1cc(F)cc(Cn2ccc3cc(-c4ccoc4C)ncc3c2=O)c1` [Compound 247], the results for the IC50 in experiment [1] and in experiment [2] were greater than 501 nM and greater than 500 nM, respectively.

For `CC(C)NC(=O)c1cccc([C@@H](C)n2cnc3cc(-c4cn[nH]c4C(F)(F)F)ccc3c2=O)c1` [Compound 445], the concentration for half-maximal inhibition (IC50) in experiment [1] was 11 to 100 nM; in experiment [2], less than 10 nM.

As for `CNC(=O)c1cccc(Cn2ccc3cc(-c4c[nH]nc4C)ncc3c2=O)c1` [Compound 239], the results for the concentration for half-maximal inhibition (IC50) in experiment [1] and in experiment [2] were 11 to 100 nM and less than 10 nM, respectively.

Turning to `Cc1nocc1-c1ccc2c(=O)n(Cc3cccc(C(=O)NCC(F)(F)F)c3)cnc2c1` [Compound 421], the half-maximal inhibitory concentration (IC50) is 11 to 100 nM in experiment [1] and less than 10 nM in experiment [2].

Regarding `Cc1nocc1-c1ccc2c(=O)n(Cc3cccc(C(=O)NCC4CCN(C5CC5)CC4)c3)ccc2c1` [Compound 80], the IC50 was 101 to 500 nM in experiment [1] and 10 to 100 nM in experiment [2].

Consider `CNC(=O)c1cccc(Cn2cc(CCO)c3cc(-c4conc4C)ccc3c2=O)c1` [Compound 552], for which the 50% inhibitory concentration (IC50) in experiment [1] was in the range of 101 to 500 nM; in experiment [2], 10 to 100 nM.

`CNC(=O)c1cccc([C@@H](C)n2cnc3cc(-c4cn[nH]c4OC)ncc3c2=O)c1` [Compound 571]: the IC50 in experiment [1] is 11 to 100 nM; in experiment [2], less than 10 nM.

With `Cn1nccc1-c1ccc2c(=O)n(Cc3cccc(C(=O)N[C@H]4C[C@H](O)C4)c3)cnc2c1` [Compound 428], the values for the IC50 in experiment [1] and in experiment [2] were 11 to 100 nM and less than 10 nM, respectively.

`Cn1nccc1-c1ccc2c(=O)n(Cc3cccc(C(=O)NCCO)c3)cnc2c1` [Compound 432]: the IC50 in experiment [1] was in the range of 101 to 500 nM; in experiment [2], 10 to 100 nM.

Turning to `O=C(NCc1ccccc1)c1cccc(Cn2ccc3cc(-c4cn[nH]c4)ccc3c2=O)c1` [Compound 30], the IC50 is greater than 501 nM in experiment [1] and 100 to 500 nM in experiment [2].

For the molecule `Cc1nocc1-c1ccc2c(=O)n(Cc3cc(F)cc(C(=O)Nc4ccc5c(c4)CCN(C)C5)c3)ccc2c1` [Compound 163], the IC50 in experiment [1] and in experiment [2] was less than 10 nM in each case.

Turning to `[2H]C([2H])([2H])NC(=O)c1cccc(Cn2ccc3cc(-c4cn[nH]c4Cl)ccc3c2=O)c1` [Compound 291], the values for the concentration for half-maximal inhibition (IC50) in experiment [1] and in experiment [2] were 11 to 100 nM and less than 10 nM, respectively.

For the molecule `CNC(=O)c1cc(F)cc(Cn2ccc3cc(-c4ccnc(N)c4)ncc3c2=O)c1` [Compound 251], the concentration for half-maximal inhibition (IC50) in experiment [1] was in the range of 101 to 500 nM; in experiment [2], 10 to 100 nM.

On to `CNC(=O)c1cc(F)cc(Cn2cnc3cc(-c4cn[nH]c4C(F)(F)F)ccc3c2=O)c1` [Compound 386], for which the figures for the IC50 in experiment [1] and in experiment [2] were 11 to 100 nM and less than 10 nM, respectively.

On to `COc1cccc(C(CN)n2cnc3cc(-c4cn[nH]c4Cl)ccc3c2=O)c1` (stereo not shown) [Compound 500], for which the IC50 in experiment [1] and in experiment [2] was less than 10 nM throughout.

In the case of `Cc1nocc1-c1ccc2c(=O)n(Cc3cc(F)cc(C(=O)NCCN4CCN(C)CC4)c3)ccc2c1` [Compound 144], the IC50 in experiment [1] was 11 to 100 nM; in experiment [2], less than 10 nM.

Take `Cn1nccc1-c1ccc2c(=O)n(Cc3cccc(C(=O)NC4CCNCC4)c3)ccc2c1` [Compound 105]: the 50% inhibitory concentration (IC50) in experiment [1] and in experiment [2] was less than 10 nM in each case.

Consider `CNC(=O)c1cccc(Cn2ccc3cc(-c4cn[nH]c4C(F)(F)F)cnc3c2=O)c1` [Compound 242], for which the figures for the IC50 in experiment [1] and in experiment [2] were greater than 501 nM and 100 to 500 nM, respectively.

For the molecule `CNC(=O)c1cc(F)cc(C(C)n2ccc3cc(-c4cn[nH]c4C(F)(F)F)ccc3c2=O)c1` (stereo not shown) [Compound 283], the IC50 is 11 to 100 nM in experiment [1] and less than 10 nM in experiment [2].

For `Cn1nccc1-c1ccc2c(=O)n(Cc3cccc(C(=O)Nc4nc5c(s4)CCNC5)c3)ccc2c1` [Compound 122], the 50% inhibitory concentration (IC50) in experiment [1] and in experiment [2] was less than 10 nM throughout.

Regarding `O=C(NCCN1CCOCC1)c1cccc(Cn2ccc3cc(N4CCOCC4)ccc3c2=O)c1` [Compound 230], the 50% inhibitory concentration (IC50) in experiment [1] was 11 to 100 nM; in experiment [2] it was 10 to 100 nM.

With `CNC(=O)c1cc(F)cc(Cn2ccc3cc(-c4ccnn4C)ncc3c2=O)c1` [Compound 245], the figures for the concentration for half-maximal inhibition (IC50) in experiment [1] and in experiment [2] were 101 to 500 nM and 10 to 100 nM, respectively.

As for `Nc1cc(-c2ccc3c(=O)n(Cc4cccc(C(=O)NC5CCOCC5)c4)cnc3c2)ccn1` [Compound 435], the IC50 in experiment [1] fell in the range of 101 to 500 nM; in experiment [2], 10 to 100 nM.

Regarding `CNC(=O)c1cccc(Cn2ccc3cc(-c4cc[nH]c4C)ncc3c2=O)c1` [Compound 231, N-methyl-3-((6-(2-methyl-1H-pyrrol-3-yl)-1-oxo-2,7-naphthyridin-2(1H)-yl)methyl)benzamide], the IC50 in experiment [1] was 11 to 100 nM; in experiment [2], less than 10 nM.

In the case of `Cc1nocc1-c1ccc2c(=O)n(Cc3cccc(C(=O)Nc4ccc5c(c4)CCN(C4CC4)C5)c3)ccc2c1` [Compound 99], the concentration for half-maximal inhibition (IC50) in experiment [1] and in experiment [2] was less than 10 nM each time.

As for `CC(=O)Nc1cccc(Cn2ccc3cc(-c4c[nH]nc4C(F)F)ccc3c2=O)c1` [Compound 341], the IC50 was 101 to 500 nM in experiment [1] and 10 to 100 nM in experiment [2].

On to `O=c1c2ccc(-c3c[nH]nc3C(F)F)cc2ccn1Cc1cccc(O)c1` [Compound 14], for which the IC50 in experiment [1] was 11 to 100 nM; in experiment [2], less than 10 nM.

Turning to `CC(O)c1cn(Cc2cccc(C(=O)NCCN(C)C)c2)c(=O)c2ccc(-c3c[nH]nc3Cl)cc12` (stereo not shown) [Compound 542], the IC50 in experiment [1] and in experiment [2] was less than 10 nM in each case.

As for `CNC(=O)c1cccc(Cn2ccc3cc(-c4cc[nH]c4C)ccc3c2=O)c1` [Compound 306], the half-maximal inhibitory concentration (IC50) in experiment [1] fell in the range of 101 to 500 nM; in experiment [2] it was 100 to 500 nM.

Take `Cn1nccc1-c1ccc2c(=O)n(Cc3cc(F)cc(C(=O)NCc4ccc(F)nc4)c3)ccc2c1` [Compound 174]: the half-maximal inhibitory concentration (IC50) was 11 to 100 nM in experiment [1] and less than 10 nM in experiment [2].

Turning to `[2H]C([2H])([2H])NC(=O)c1cc(F)cc(Cn2ccc3cc(-c4cn[nH]c4C(F)(F)F)ccc3c2=O)c1` [Compound 282], the half-maximal inhibitory concentration (IC50) was 11 to 100 nM in experiment [1] and less than 10 nM in experiment [2].

As to `COc1cccc(Cn2cnc3cc(-c4c[nH]nc4Cl)ccc3c2=O)c1` [Compound 362], the results for the IC50 in experiment [1] and in experiment [2] were 11 to 100 nM and less than 10 nM, respectively.

In the case of `COc1cccc(C(CO)n2cnc3cc(-c4cn[nH]c4Cl)ccc3c2=O)c1` (stereo not shown) [Compound 491], the IC50 in experiment [1] is 11 to 100 nM; in experiment [2], 10 to 100 nM.

For `CN1CCc2cc(NC(=O)c3cccc(Cn4ccc5cc(-c6ccnn6C)ccc5c4=O)c3)ccc2C1` [Compound 124], the half-maximal inhibitory concentration (IC50) in experiment [1] and in experiment [2] was less than 10 nM each time.

Take `CNC(=O)c1cccc(Cn2cc(C(C)O)c3cc(-c4c[nH]nc4C(F)(F)F)ccc3c2=O)c1` (stereo not shown) [Compound 532, 3-((4-(1-hydroxyethyl)-1-oxo-6-(3-(trifluoromethyl)-1H-pyrazol-4-yl)isoquinolin-2(1H)-yl)methyl)-N-methylbenzamide]: the IC50 in experiment [1] and in experiment [2] was less than 10 nM in each case.

With `O=C(NCC1CCNCC1)c1cccc(Cn2cnc3cc(-c4cn[nH]c4C(F)(F)F)ccc3c2=O)c1` [Compound 381], the IC50 in experiment [1] and in experiment [2] was less than 10 nM throughout.

In the case of `Cc1nocc1-c1ccc2c(=O)n(Cc3cccc(C(=O)Nc4ccc5c(c4)CCN(C)C5)c3)ccc2c1` [Compound 97], the half-maximal inhibitory concentration (IC50) in experiment [1] and in experiment [2] was less than 10 nM in each case.

These data come from US12064426B2, “Selective inhibitors of ROCK1 and ROCK2 protein kinases and uses thereof” (GENOSCO Inc., priority 2021, dated 2024).
